From patent publication US20150344466A1 (SUMITOMO CHEMICAL COMPANY, LIMITED, priority 2013, published 2015) come the findings set out here.

What all share (format): in vivo
In test [1] the test system is Blattella germanica. Nature of the test: Knockdown spray test on Blattella germanica, 2.0% w/v oil formulation (Test Example 1). The note with it: topical, 0.25 h, active ingredient 2.0% w/v, 1.5 ml sprayed, within 15 minutes, read-out: knockdown rate of the test insects within 15 minutes. An outline of the steps: (§1)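 Ten German cockroaches (5 males, 5 females) in a mesh-bottomed, butter-walled container were sprayed with 1.5 ml test solution from 60 cm at 0.42 kg/cm^2 inside a chamber.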

Test [2] deals with Musca domestica. The experiment in a line: Knockdown spray test on adult Musca domestica (Test Example 3). The note with it: topical, 0.25 h, active ingredient 2.0% w/v, 0.5 ml sprayed, within 15 minutes, read-out: knockdown rate of the test insects within 15 minutes. An outline of the steps:
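Ten adult house flies (5 male, 5 female) in a gauze-covered cup sprayed with 0.5 ml test solution from 30 cm at 0.9 kg/cm^2 inside a chamber, then removed. Knocked-down flies counted at 2, 5 and 15 min and expressed as % of insects tested.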

Test [3] has as its system Culex pipiens pallens. Nature of the test: Knockdown spray test on adult Culex pipiens pallens (Test Example 4). As to conditions: topical, 0.25 h, active ingredient 0.1% w/v, 0.5 ml sprayed, within 15 minutes, read-out: knockdown rate of the test insects within 15 minutes. An outline of the steps: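 Knockdown counts were taken 2, 5 and 15 min after spraying and expressed as percent of the 10 adults tested. For the spray, 0.5 ml of solution was applied by spray gun (0.4 kg/cm^2) from 30 cm above a gauze-covered cup in a test chamber; the cup was taken out right after spraying.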

Test [4] deals with Musca domestica. Nature of the test: Filter paper/sucrose bait death rate test on Musca domestica (Test Example 5). The note with it: female imagoes of Musca domestica, 0.7 ml on filter paper, after 24 hours. An outline of the steps:
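Ten female imagoes were confined in a sealed cup over a filter paper treated with 0.7 ml of test solution and 30 mg sucrose bait. Mortality was scored at 24 h and expressed as percent of tested insects killed.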

In test [5] the test system is Aphis gossypii. The experiment in a line: Soil treatment test on Aphis gossypii on cucumber (Test Example 9). As to conditions: 168 h, 5 ml treatment solution in contact with soil, seven days after putting insects, read-out: controlling value. How it is done: On the other hand, cucumber was planted in a polyethylene cup with a plurality of small holes on the bottom and grown until the first true leaf was spread. A cup in which cucumber was planted was put in a plastic cup with 5 ml of the test treatment solution, so that the soil in the cup was in contact with the treatment liquid. After five days, about 20Aphis gossypii were allowed to parasitize the cucumber, and seven days after putting insects, the number of Aphis gossypii was investigated, and the controlling value was calculated according to the following equation. Controlling value (%)={1−(Cb×Tai)/([…])}×100 In the equation, the symbols represent as follows. Cb: the number of insects in a non-treated section before treatment Cai: the number of insects in a non-treated section on observation Tb: the number of insects in a treated section before treatment Tai: the number of insects in a treated section on observation

Test [6] deals with Culex pipiens pallens. Nature of the test: Larvicidal test on Culex pipiens pallens, one day (Test Example 6). As to conditions: 24 h; last-instar larvae of Culex pipiens pallens; 3.5 ppm in water; one day later; read-out: death rate. How it is done: Each of the formulations of Compounds of Present Invention (39), (63), (71), (72), (92), (93), (95), (106), (150), (171), (170), (181), (182), (183), (187), (188), (189), (190), (191), (192), (200), (201), (201), (234), (246), (290) and (299) obtained in Formulation Example 15 was diluted with water, so as to have a concentration of the active ingredient of 500 ppm, to prepare a test drug solution.
20 last-instar larvae of Culex pipiens pallens were released into a liquid to which 0.7 ml of the above test drug solution was added to 100 ml of ion-exchanged water (a concentration of the active ingredient of 3.5 ppm). One day later, the life and death of the Culex pipiens pallens was examined, and the death rate was calculated. The death rate was calculated by the following equation.
Death rate (%)=(Number of dead insects/Number of tested insects)×100

In test [7] the test system is Culex pipiens pallens. Nature of the test: Larvicidal test on Culex pipiens pallens, eight days (Test Example 7). As to conditions: 192 h; last-instar larvae of Culex pipiens pallens; 3.5 ppm in water; eight days later; read-out: death rate. An outline of the steps: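 Twenty last-instar larvae placed in 100 ml ion-exchanged water containing test drug at 3.5 ppm active ingredient. Mortality scored after eight days; death rate = dead/tested × 100.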

In another test the test system is Plutella xylostella. The experiment in a line: Foliar spray test on Plutella xylostella on cabbage (Test Example 10). As to conditions: 120 h, third instar larvae of Plutella xylostella on cabbage, 500 ppm spray 20 ml/cup, after five days, read-out: controlling value. An outline of the steps:
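Cabbage at the third–fourth true-leaf stage sprayed with test solution at 20 ml/cup, dried, then infested with 10 third-instar larvae. Insects counted after five days; controlling value (%) calculated from treated and non-treated counts before treatment and at observation.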

For test [8], the system named is Adoxophyes orana fasciata. The experiment in a line: Spray test on Adoxophyes orana fasciata on apple seedling (Test Example 12). The note with it: 168 h, first-instar larvae of Adoxophyes orana fasciata on apple seedling, 20 ml spray, seven days after spraying. How it is done: On the other hand, 20 ml of the test spray solution was each sprayed on an apple seedling (28 days after sowing, a tree height of about 15 cm) planted in a plastic cup. After the drug solution sprayed on the apple was air-dried, about 30 first-instar larvae of Adoxophyes orana fasciata were released. Seven days after spraying, the number of surviving Adoxophyes orana fasciata on the apple seedling was investigated, and the controlling value was calculated according to the following equation. Controlling value (%)={1−(Cb×Tai)/(Cai×Tb)}×100 In the equation, the symbols represent as follows. Cb: the number of insects in a non-treated section before treatment Cai: the number of insects in a non-treated section on observation Tb: the number of insects in a treated section before treatment Tai: the number of insects in a treated section on observation

For test [9], the system named is Aphis gossypii. Nature of the test: Foliar spray test on Aphis gossypii on cucumber (Test Example 8). As to conditions: 144 h, 500 ppm spray 20 ml/cup, Sir days after spraying, read-out: controlling value. How it is done:
On the other hand, cucumber was planted in a polyethylene cup and grown until the first true leaf was spread, and about 20 Aphis gossypii were allowed to parasitize the cucumber. One day after, the test spray solution was sprayed to the cucumber at a ratio of 20 ml/cup. Sir days after spraying, the number of Aphis gossypii was investigated, and the controlling value was calculated according to the following equation. Controlling value (%)={1−(Cb×Tai)/(Cai×Tb)}×100 In the equation, the symbols represent as follows. Cb: the number of insects in a non-treated section before treatment Cai: the number of insects in a non-treated section on observation Tb: the number of insects in a treated section before treatment Tai: the number of insects in a treated section on observation

The subject of the next test is Spodoptera litura. The experiment in a line: Foliar spray test on Spodoptera litura on cabbage (Test Example 11). As to conditions: 96 h, fourth instar larvae of Spodoptera litura on cabbage, 500 ppm spray 20 ml/cup, after 4 days, read-out: controlling value. The procedure, abridged:
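Cabbage is grown in cups to the third–fourth true leaf and sprayed at 20 ml/cup. Once the spray has dried, 10 fourth-instar larvae are released per cup and survivors are counted after 4 days. Controlling value (%) is corrected using pre-treatment and observation counts in treated and untreated sections.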

Test [10] has as its system Blattella germanica. Nature of the test: Knockdown spray test on Blattella germanica, 0.1% w/v oil formulation (Test Example 2). The note with it: topical, 0.25 h, active ingredient 0.1% w/v, 1.5 ml sprayed, within 15 minutes, read-out: knockdown rate of the test insects within 15 minutes. The procedure, abridged:
as §1

Bounds are passed on as bounds.

Regarding `O=C(NC[C@@H]1CCOC1)c1cc(COCc2ccccc2)on1` [(34), N—[(S)-tetrahydrofuran-3-ylmethyl]-5-benzyloxymethylisoxazole-3-carboxamide], the pest or weed control at 2 % strength with Blattella germanica [1] and in the test with Musca domestica [2] was at least 80% throughout. Besides, in the test on Culex pipiens pallens [3], the pest or weed control at 0.1 % strength was at least 80%. Moreover, the pest or weed control at 500 ppm with Musca domestica [4] and in the test on Aphis gossypii [5] was at least 90% in each case.

Consider `O=C(NCC1CCS(=O)(=O)C1)c1cc(COCc2ccccc2)on1` (stereo not shown) [(39), N-(1,1-dioxotetrahydrothiophen-3-ylmethyl)-5-benzyloxymethylisoxazole-3-carboxamide], for which the pest or weed control at 3.5 ppm with Culex pipiens pallens [6] and with Culex pipiens pallens [7] was at least 90% each time. Besides, the results for the pest or weed control at 500 ppm (in the test with Plutella xylostella; in test [8]) were at least 90% and 100%, respectively.

With `O=C(NCC1CCOCC1)c1cc(COCc2cccc(SC(F)(F)F)c2)on1` [(81), N-(tetrahydropyran-4-ylmethyl)-5-(3-trifluoromethylthiobenzyloxymethyl)isoxazole-3-carboxamide], the pest or weed control at 0.1 % strength in the test on Culex pipiens pallens [3] is at least 80%. Moreover, the pest or weed control at 500 ppm in the test on Aphis gossypii [9] was at least 90%; in the test with Plutella xylostella, at least 90%; in the test with Spodoptera litura it was at least 80%.

For the molecule `O=C(NCC1CCOCC1)c1cc(COCc2ccc(OC(F)(F)F)cc2)on1` [(94), N-(tetrahydropyran-4-ylmethyl)-5-(4-trifluoromethoxybenzyloxymethyl)isoxazole-3-carboxamide], the pest or weed control at 0.1 % strength with Blattella germanica [10] and with Culex pipiens pallens [3] was at least 80% throughout. The pest or weed control at 500 ppm in the test on Aphis gossypii [9] and in the test on Plutella xylostella was at least 90% throughout.

As to `O=C(NCC1CCOC1)c1cc(COCc2ccc3c(c2)OCO3)on1` (stereo not shown) [(105), N-(tetrahydrofuran-3-ylmethyl)-5-(3,4-methylenedioxybenzyloxymethyl)isoxazole-3-carboxamide], the pest or weed control at 0.1 % strength with Blattella germanica [10] and in the test on Culex pipiens pallens [3] was at least 80% in each case. Further, the pest or weed control at 500 ppm was at least 90% in the test on Musca domestica [4], at least 90% in the test on Aphis gossypii [5], at least 90% in the test with Plutella xylostella and at least 80% with Spodoptera litura. For the same molecule, the pest or weed control at 3.5 ppm in the test with Culex pipiens pallens [7] is at least 90%.

With `O=C(NCC1CCOCC1)c1cc(COCc2ccc3c(c2)OCO3)on1` [(106), N-(tetrahydropyran-4-ylmethyl)-5-(3,4-methylenedioxybenzyloxymethyl)isoxazole-3-carboxamide], the pest or weed control at 0.1 % strength in the test on Blattella germanica [10] and in the test with Culex pipiens pallens [3] was at least 80% throughout. Besides, the pest or weed control at 3.5 ppm in the test with Culex pipiens pallens [6] and with Culex pipiens pallens [7] was at least 90% in each case. In addition, the pest or weed control at 500 ppm was at least 90% in the test on Aphis gossypii [5], at least 90% in the test with Plutella xylostella and at least 80% in the test with Spodoptera litura.

On to `O=C(NCC1CCOC1)c1cc(COCc2ccc3c(c2)CCCC3)on1` (stereo not shown) [(119), N-(tetrahydrofuran-3-ylmethyl)-5-(5,6,7,8-tetrahydronaphthalen-2-ylmethoxymethyl)isoxazole-3-carboxamide], for which the pest or weed control at 2 % strength with Blattella germanica [1] and in the test on Musca domestica [2] was at least 80% each time. In addition, the pest or weed control at 0.1 % strength with Culex pipiens pallens [3] is at least 80%. For the same molecule, the pest or weed control at 3.5 ppm in the test on Culex pipiens pallens [7] is at least 90%. Moreover, the pest or weed control at 500 ppm in the test with Aphis gossypii [9] and in the test on Plutella xylostella was at least 90% in each case.

Regarding `O=C(NCC1CCOC1)c1cc(COCC2Oc3ccccc3O2)on1` (stereo not shown) [(122), N-(tetrahydrofuran-3-ylmethyl)-5-(1,3-benzodioxolan-2-ylmethoxymethyl)isoxazole-3-carboxamide], the pest or weed control at 0.1 % strength in the test with Blattella germanica [10] and with Culex pipiens pallens [3] was at least 80% in each case. The molecule also returned a pest or weed control at 500 ppm in test [8] of 100%.

For `CC(OCc1ccccc1)c1cc(C(=O)NCC2CCOC2)no1` (stereo not shown) [(129), N-(tetrahydrofuran-3-ylmethyl)-5-[1-(benzyloxy)ethyl]isoxazole-3-carboxamide], the pest or weed control at 500 ppm in the test with Aphis gossypii [9] and in the test on Aphis gossypii [5] was at least 90% throughout.

Take `O=C(NCC1CCOC1)c1cc(COCC2CCCC2)on1` (stereo not shown) [(131), N-(tetrahydrofuran-3-ylmethyl)-5-cyclopentylmethoxymethylisoxazole-3-carboxamide]: the pest or weed control at 2 % strength with Blattella germanica [1] and in the test with Musca domestica [2] was at least 80% in each case. For the same molecule, in the test on Culex pipiens pallens [3], the pest or weed control at 0.1 % strength is at least 80%. The pest or weed control at 500 ppm in the test on Aphis gossypii [9] was at least 90%.

As to `O=C(NCC1CCOC1)c1cc(CCCCCCO)on1` (stereo not shown) [(144), N-(tetrahydrofuran-3-ylmethyl)-5-(6-hydroxyhexyl)isoxazole-3-carboxamide], the pest or weed control at 500 ppm in the test with Aphis gossypii [9] is at least 90%.

Turning to `O=C(NCC1CCOC1)c1cc(C(F)c2ccccc2)on1` (stereo not shown) [(154), N-(tetrahydrofuran-3-ylmethyl)-5-(1-fluoro-1-phenylmethyl)isoxazole-3-carboxamide], the pest or weed control at 500 ppm in the test with Aphis gossypii [9] and in the test on Aphis gossypii [5] was at least 90% each time.

As to `O=C(NCC1CCOC1)c1noc(COCc2ccccc2)c1CF` (stereo not shown) [(170), N-(tetrahydrofuran-3-ylmethyl)-(5-benzyloxymethyl-4-fluoromethyl)isoxazole-3-carboxamide], the pest or weed control at 0.1 % strength with Blattella germanica [10] and in the test with Culex pipiens pallens [3] was at least 80% in each case. Moreover, the pest or weed control at 3.5 ppm in the test on Culex pipiens pallens [6] and with Culex pipiens pallens [7] was at least 90% throughout. Moreover, the pest or weed control at 500 ppm is at least 90% in the test with Plutella xylostella and 100% in test [8].
